Test [1] has as its target Calpain1/2 (Homo sapiens) (UniProt P17655+P07384). Put plainly: Inhibition of calpain1/2 (unknown origin) using Suc-LLVY-AMC as substrate at 6.3 uM after 20 mins by fluorometric analysis. In kind it is protein assay.
Test [2] addresses T1, Ubiquitin carboxyl-terminal hydrolase 2 (Homo sapiens) (UniProt O75604).
T1 sequence (whole entry): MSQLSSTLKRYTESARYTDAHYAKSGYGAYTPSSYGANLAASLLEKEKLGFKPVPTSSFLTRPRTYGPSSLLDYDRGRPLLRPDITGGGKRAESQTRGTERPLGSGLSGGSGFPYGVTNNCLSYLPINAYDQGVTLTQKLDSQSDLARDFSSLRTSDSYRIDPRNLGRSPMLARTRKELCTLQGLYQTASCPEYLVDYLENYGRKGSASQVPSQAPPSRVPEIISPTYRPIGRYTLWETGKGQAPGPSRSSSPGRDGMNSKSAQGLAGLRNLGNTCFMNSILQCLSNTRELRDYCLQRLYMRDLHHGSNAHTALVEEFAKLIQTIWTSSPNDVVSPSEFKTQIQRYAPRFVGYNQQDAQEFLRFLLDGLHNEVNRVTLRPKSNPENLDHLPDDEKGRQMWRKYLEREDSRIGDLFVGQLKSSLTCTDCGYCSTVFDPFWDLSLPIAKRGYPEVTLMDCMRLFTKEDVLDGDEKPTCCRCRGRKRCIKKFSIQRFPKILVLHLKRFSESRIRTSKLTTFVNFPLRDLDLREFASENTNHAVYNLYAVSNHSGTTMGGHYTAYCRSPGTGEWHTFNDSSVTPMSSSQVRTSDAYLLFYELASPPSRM
Put plainly: Inhibition of human USP2 using Ub-AMC as substrate at 1 to 30 uM after 60 mins by fluorometric analysis.

Test [3] addresses T2, Ubiquitin carboxyl-terminal hydrolase isozyme L3 (Homo sapiens) (UniProt P15374).
T2 sequence (whole entry): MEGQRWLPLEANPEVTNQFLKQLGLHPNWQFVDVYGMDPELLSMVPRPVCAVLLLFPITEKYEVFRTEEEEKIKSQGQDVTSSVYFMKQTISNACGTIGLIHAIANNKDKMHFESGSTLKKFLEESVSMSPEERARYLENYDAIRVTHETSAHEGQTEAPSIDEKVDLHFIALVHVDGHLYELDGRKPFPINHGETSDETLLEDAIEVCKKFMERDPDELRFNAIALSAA
The experiment in a line: Inhibition of human UCH-L3 using Ub-AMC as substrate at 1 to 30 uM after 60 mins by fluorometric analysis.

Test [4] concerns the target T3, Ubiquitin carboxyl-terminal hydrolase 5 (Homo sapiens, UniProt P45974).
T3 sequence (P45974 whole entry): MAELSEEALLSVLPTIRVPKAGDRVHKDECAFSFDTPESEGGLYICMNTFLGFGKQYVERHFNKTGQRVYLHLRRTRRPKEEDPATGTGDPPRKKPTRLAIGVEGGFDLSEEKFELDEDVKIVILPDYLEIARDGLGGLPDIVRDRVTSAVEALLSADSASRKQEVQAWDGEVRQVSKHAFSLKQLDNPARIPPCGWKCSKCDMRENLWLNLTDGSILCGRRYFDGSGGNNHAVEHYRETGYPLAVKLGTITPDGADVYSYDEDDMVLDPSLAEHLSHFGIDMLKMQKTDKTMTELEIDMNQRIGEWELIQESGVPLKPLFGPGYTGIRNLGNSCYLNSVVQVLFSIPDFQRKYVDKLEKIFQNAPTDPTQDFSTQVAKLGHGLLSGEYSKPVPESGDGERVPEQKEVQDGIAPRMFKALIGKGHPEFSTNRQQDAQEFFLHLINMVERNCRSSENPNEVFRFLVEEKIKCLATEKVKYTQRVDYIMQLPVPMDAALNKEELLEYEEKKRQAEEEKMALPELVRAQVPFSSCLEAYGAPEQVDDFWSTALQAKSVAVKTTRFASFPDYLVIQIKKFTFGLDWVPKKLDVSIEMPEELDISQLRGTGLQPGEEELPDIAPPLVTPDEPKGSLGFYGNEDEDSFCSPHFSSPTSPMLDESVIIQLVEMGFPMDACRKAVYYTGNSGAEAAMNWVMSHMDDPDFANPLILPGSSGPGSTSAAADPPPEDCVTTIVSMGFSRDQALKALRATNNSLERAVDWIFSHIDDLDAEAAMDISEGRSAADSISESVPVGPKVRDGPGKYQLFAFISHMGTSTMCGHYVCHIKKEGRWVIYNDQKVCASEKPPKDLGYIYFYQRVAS
The experiment in a line: Inhibition of wild type human USP5 expressed in Escherichia coli BL21(DE3) using Ub-AMC as substrate after 60 mins by fluorometric analysis.

The target of test [5] is T4, Ubiquitin carboxyl-terminal hydrolase 5 (Homo sapiens) (UniProt P45974).
T4 sequence (whole entry): T3 sequence (P45974 whole entry)
Put plainly: Inhibition of wild type human USP5 expressed in Escherichia coli BL21(DE3) using K48-linked tetraubiquitin as substrate assessed as substrate hydrolysis at 10 uM after 15 mins by SDS-PAGE analysis.

Test [6] concerns T5, Ubiquitin carboxyl-terminal hydrolase 5 (Homo sapiens), P45974 [C335A].
T5 sequence (whole entry): T3 sequence (P45974 whole entry) with C335A
The experiment in a line: Competitive binding affinity to human USP5 C335A mutant by SDS-PAGE analysis in presence of biotin-DMT.

Test [7] concerns the target T4, Ubiquitin carboxyl-terminal hydrolase 5 (Homo sapiens). The experiment in a line: Competitive binding affinity to human recombinant USP5 after 1 hr by SDS-PAGE analysis in presence of biotin-DMT.

The text below walks through data of ChEMBL document CHEMBL2406999, “Vialinin A is a ubiquitin-specific peptidase inhibitor” (Bioorg Med Chem Lett, 2013).

Molecules are shown by their SMILES. Changes are numbered by the printed parent chain. Activity calls are given as the source filed them. No cut-off for these calls is given here.

Chain of Calpain1/2 (Homo sapiens) (P07384 whole entry, looked up): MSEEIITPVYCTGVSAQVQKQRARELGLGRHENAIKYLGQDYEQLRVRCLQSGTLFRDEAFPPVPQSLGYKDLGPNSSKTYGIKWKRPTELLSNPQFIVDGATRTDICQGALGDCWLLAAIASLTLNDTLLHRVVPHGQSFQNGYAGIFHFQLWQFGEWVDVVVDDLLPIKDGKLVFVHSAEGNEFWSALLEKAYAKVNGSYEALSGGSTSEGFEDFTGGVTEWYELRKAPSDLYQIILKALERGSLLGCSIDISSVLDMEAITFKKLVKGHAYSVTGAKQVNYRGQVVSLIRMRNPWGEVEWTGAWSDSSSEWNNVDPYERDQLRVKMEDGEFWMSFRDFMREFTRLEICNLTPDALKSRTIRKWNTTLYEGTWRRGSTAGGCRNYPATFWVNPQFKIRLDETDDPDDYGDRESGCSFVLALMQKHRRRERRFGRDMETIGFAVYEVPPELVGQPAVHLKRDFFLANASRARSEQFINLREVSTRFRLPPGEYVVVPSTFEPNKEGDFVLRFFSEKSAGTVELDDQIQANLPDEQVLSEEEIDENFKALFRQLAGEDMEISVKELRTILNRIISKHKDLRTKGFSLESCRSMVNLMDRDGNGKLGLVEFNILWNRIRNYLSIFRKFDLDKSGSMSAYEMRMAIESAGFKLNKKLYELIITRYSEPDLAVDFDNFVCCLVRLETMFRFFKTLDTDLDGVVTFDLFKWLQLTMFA
Chain of Calpain1/2 (Homo sapiens) (P17655 whole entry, looked up): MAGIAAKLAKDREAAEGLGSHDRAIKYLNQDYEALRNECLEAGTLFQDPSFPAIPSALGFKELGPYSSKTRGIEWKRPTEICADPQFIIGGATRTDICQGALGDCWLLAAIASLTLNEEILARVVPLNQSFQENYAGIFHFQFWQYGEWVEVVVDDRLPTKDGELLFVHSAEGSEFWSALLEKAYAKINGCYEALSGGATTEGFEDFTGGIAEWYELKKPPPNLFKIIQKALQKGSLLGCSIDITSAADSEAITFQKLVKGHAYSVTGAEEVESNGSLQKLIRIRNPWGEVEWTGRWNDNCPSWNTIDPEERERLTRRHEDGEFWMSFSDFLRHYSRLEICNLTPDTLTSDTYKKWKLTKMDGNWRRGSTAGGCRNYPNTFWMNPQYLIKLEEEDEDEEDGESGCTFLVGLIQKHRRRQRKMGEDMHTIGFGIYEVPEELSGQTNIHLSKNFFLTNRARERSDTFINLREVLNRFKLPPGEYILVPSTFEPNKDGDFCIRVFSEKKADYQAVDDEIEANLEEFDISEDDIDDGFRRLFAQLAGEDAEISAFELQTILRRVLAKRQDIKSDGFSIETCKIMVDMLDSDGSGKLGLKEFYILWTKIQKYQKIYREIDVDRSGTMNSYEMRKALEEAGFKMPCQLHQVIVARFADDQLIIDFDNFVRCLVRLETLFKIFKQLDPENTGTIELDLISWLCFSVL

Regarding `O=C(Cc1ccccc1)Oc1c(OC(=O)Cc2ccccc2)c(-c2ccc(O)cc2)c(O)c(O)c1-c1ccc(O)cc1` [VIALININ A], the inhibition entry in test [1], in test [2] and in test [3] was “inactive” each time. The same molecule had an IC50 in test [4] of 5.9 µM. In addition, affinity in test [4] was put at a Ki of 4 µM. The inhibition entry in test [5] is “Active”. For the same molecule, the outcome in test [6] was inactive. For the same molecule, in test [7], the outcome was Active.
